In ChEMBL document CHEMBL6127062, “Targeted degradation of METTL3 against acute myeloid leukemia and gastric cancer” (Eur J Med Chem, 2024):
Blank lines part the entries; values can stand above or below the molecule they belong to. Calls of active or inactive are those of the source. The calls are words filed in the database; no cut-off is given here.

Assays:
[1] = tested on: GES1; assay: Anticancer activity against human GES1 cells assessed as inhibition of cell growth incubated for 72 hrs by cell viability assay; type: functional, cell-based
[2] = tested on: AGS; assay: Anticancer activity against human AGS cells assessed as inhibition of cell growth incubated for 72 hrs by cell viability assay; type: functional, cell-based
[3] = tested on: SNU-484; assay: Anticancer activity against human SNU484 cells assessed as inhibition of cell growth incubated for 72 hrs by cell viability assay; type: functional, cell-based
[4] = tested on: MOLM-13; assay: Antiproliferative activity against human MOLM-13 cells assessed as inhibition of cell proliferation measured after 72 hrs by Celltiter Glo luminescent cell viability assay; type: functional, cell-based; conditions: MOLM-13, 72 h
[5] = target: T1, von Hippel-Lindau disease tumor suppressor/N(6)-adenosine-methyltransferase catalytic subunit METTL3 (Homo sapiens, UniProt P40337+Q86U44); assay: PROTAC activity at VHL/METTL3 in human MOLM-13 cells assessed as induction of METTL3 degradation at 10 uM by Western blot analysis relative to control; type: cell-based
T1 sequence (Q86U44 2-580 partner limits assumed): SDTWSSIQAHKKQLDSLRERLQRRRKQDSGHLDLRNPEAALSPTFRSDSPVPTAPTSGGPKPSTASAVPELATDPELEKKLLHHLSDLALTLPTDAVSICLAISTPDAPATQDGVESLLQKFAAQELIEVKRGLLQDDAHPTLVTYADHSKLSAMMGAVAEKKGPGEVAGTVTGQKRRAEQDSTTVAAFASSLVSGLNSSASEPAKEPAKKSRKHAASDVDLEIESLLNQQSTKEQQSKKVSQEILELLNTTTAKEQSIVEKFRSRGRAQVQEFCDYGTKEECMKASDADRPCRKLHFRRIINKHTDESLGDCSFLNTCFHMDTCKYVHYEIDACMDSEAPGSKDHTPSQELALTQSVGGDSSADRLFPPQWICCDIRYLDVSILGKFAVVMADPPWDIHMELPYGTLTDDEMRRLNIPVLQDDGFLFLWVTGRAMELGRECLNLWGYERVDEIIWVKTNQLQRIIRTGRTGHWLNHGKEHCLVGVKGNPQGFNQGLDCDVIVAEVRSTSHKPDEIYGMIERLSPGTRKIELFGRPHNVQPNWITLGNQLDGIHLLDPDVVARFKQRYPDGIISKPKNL
T1 sequence (P40337 whole entry): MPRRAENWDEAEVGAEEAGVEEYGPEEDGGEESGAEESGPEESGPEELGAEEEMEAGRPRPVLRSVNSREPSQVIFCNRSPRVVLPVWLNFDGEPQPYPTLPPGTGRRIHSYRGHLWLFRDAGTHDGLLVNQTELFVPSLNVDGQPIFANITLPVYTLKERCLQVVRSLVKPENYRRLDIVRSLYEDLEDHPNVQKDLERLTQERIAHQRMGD

[6] = target: T1, von Hippel-Lindau disease tumor suppressor/N(6)-adenosine-methyltransferase catalytic subunit METTL3; assay: PROTAC activity at VHL/METTL3 in human MOLM-13 cells assessed as induction of METTL3 degradation at 1 uM by Western blot analysis relative to control; type: cell-based
[7] = tested on: HeLa; assay: Binding affinity to METTL3/GFP-fused BRD4 (unknown origin) expressed in HeLa cells presence of MZ1 by Western blot analysis; type: cell-based; conditions: Homo sapiens
[8] = target: T1, von Hippel-Lindau disease tumor suppressor/N(6)-adenosine-methyltransferase catalytic subunit METTL3; assay: PROTAC activity at VHL/METTL3 (unknown origin) expressed in HeLa cells assessed as reduction in BRD4-eGFP_mCherry level incubated for 4 hrs in presence of MZ1 by flow cytometry analysis; type: cell-based
[9] = target: N6-adenosine-methyltransferase catalytic subunit (Homo sapiens) (UniProt Q86U44); assay: Induction of thermal stabilization of METTL3 in human MOLM-13 cells at 52.4 to 54.8 degreeC incubated for 1 hrs by cellular thermal shift assay; type: cell-based
Sequence of N6-adenosine-methyltransferase catalytic subunit (Homo sapiens) (Q86U44 whole entry): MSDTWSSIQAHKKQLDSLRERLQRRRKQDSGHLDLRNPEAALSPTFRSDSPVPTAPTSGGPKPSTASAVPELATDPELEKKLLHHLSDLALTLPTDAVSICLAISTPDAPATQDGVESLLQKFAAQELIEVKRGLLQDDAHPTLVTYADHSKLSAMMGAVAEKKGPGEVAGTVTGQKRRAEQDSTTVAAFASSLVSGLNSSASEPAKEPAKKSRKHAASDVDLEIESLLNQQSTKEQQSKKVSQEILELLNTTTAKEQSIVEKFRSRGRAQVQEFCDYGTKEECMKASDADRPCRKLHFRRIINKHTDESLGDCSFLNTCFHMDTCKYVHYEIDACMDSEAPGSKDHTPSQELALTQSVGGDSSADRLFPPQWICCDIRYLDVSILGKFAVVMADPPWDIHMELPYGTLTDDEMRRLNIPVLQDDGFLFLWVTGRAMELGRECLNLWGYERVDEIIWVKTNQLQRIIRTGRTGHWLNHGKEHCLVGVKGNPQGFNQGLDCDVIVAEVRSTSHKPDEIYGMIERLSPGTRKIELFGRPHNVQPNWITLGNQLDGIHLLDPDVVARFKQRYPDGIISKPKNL

[10] = target: T1, von Hippel-Lindau disease tumor suppressor/N(6)-adenosine-methyltransferase catalytic subunit METTL3; assay: PROTAC activity at VHL/METTL3 in human MOLM-13 cells assessed as reduction in METTL3 level at 1 uM incubated for 24 hrs by Western blot analysis; type: cell-based
[11] = target: T2, Protein cereblon/N(6)-adenosine-methyltransferase catalytic subunit METTL3 (Homo sapiens) (UniProt Q96SW2+Q86U44); assay: PROTAC activity at CRBN/METTL3 in human MOLM-13 cells assessed as induction of METTL3 degradation at 1 uM by Western blot analysis relative to control; type: cell-based
T2 sequence (Q86U44 whole entry, looked up): as the sequence (Q86U44 whole entry) above
T2 sequence (Q96SW2 whole entry, looked up): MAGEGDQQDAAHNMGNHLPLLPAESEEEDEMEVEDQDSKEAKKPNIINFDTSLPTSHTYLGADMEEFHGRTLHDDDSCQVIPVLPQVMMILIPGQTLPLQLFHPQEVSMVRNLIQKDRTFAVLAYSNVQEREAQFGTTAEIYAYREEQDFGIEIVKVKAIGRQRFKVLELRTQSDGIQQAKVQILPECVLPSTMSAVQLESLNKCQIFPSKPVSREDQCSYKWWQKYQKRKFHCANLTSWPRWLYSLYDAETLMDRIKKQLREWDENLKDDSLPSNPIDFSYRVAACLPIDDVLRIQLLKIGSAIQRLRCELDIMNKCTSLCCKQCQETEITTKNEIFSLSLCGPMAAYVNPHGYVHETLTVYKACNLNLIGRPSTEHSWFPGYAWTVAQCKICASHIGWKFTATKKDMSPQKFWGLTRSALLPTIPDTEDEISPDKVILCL

[12] = target: T2, Protein cereblon/N(6)-adenosine-methyltransferase catalytic subunit METTL3 (Homo sapiens); assay: PROTAC activity at CRBN/METTL3 in human MOLM-13 cells assessed as induction of METTL3 degradation at 10 uM by Western blot analysis relative to control; type: cell-based

IC50 [4]: 5.47 µM
SMILES: O=C(NCc1cn2cc(CNCC3CCCCC3)ccc2n1)c1cc(=O)n2ccccc2n1
Activity [1]: inactive
Activity [2]: inactive
Activity [3]: inactive

Activity [5]: 55%
Activity [6]: 34%
SMILES: Cc1ncsc1-c1ccc(CNC(=O)[C@@H]2C[C@@H](O)CN2C(=O)[C@@H](NC(=O)CCCCCCCCCCNc2cc(N3CCC4(CC3)CN(c3cc(F)c(CN5CCC(C)(C)CC5)cc3F)CC(=O)N4)ncn2)C(C)(C)C)cc1

Activity [8]: Active
Activity [9]: Active
Activity [10]: inactive
SMILES: Cc1ncsc1-c1ccc(CNC(=O)[C@@H]2C[C@H](O)CN2C(=O)[C@@H](NC(=O)CCCCCCCNc2cc(N3CCC4(CC3)CN(c3cc(F)c(CN5CCC(C)(C)CC5)cc3F)CC(=O)N4)ncn2)C(C)(C)C)cc1
Activity [7]: Active

Activity [11]: 9%
Activity [12]: 22%
SMILES: CC1(C)CCN(Cc2cc(F)c(N3CC(=O)NC4(CCN(c5cc(NCCCCCCCCCCC(=O)N6CCN(c7ccc8c(c7)C(=O)N(C7CCC(=O)NC7=O)C8=O)CC6)ncn5)CC4)C3)cc2F)CC1 (configuration not stated)
